In general, pIC50 refers to the negative decadic logarithm of the IC50, by convention in mol/L.

The record followed here is BindingDB's records for doi:10.1016/j.bmcl.2009.09.017 (Pfizer, 2009).

SMILES strings stand for the structures. pIC50: −log10 of the molar value. Bounds are passed on as bounds.

A short description of this assay: Antagonist activity at P2Y12 receptor in human platelet rich plasma assessed as inhibition of ADP-induced platelet aggregation by light transmission aggregometry.

In the case of `CCCCCOC(=O)N1CCN(C(=O)[C@H](CCC(=O)O)NC(=O)c2nc(NCCOC)cc(-c3ccccc3)n2)CC1` [(S)-4-(4-(2-methoxyethylamino)-6-phenylpyrimidine-2-carboxamido)-5-oxo-5-(4-(pentyloxycarbonyl)piperazin-1-yl)pentanoic acid], the pIC50 was less than 5.00.
To `CCCCCOC(=O)N1CCN(C(=O)[C@H](CCC(=O)O)NC(=O)c2nc(-c3ccccc3)cc(N3CCC(OCCO)CC3)n2)CC1` [(S)-4-(4-(4-(2-hydroxyethoxy)piperidin-1-yl)-6-phenylpyrimidine-2-carboxamido)-5-oxo-5-(4-(pentyloxycarbonyl)piperazin-1-yl)pentanoic acid] belongs less than 5.00; to `CCCCOC(=O)N1CCN(C(=O)[C@H](CCC(=O)O)NC(=O)c2cc(N3CCC(OC)CC3)nc(-c3ccccc3)n2)CC1` [(S)-5-(4-(butoxycarbonyl)piperazin-1-yl)-4-(6-(4-methoxypiperidin-1-yl)-2-phenylpyrimidine-4-carboxamido)-5-oxopentanoic acid], 5.74.
To `CCCCCOC(=O)N1CCN(C(=O)[C@H](CCC(=O)O)NC(=O)c2nc(-c3ccccc3)cc(N3CCC(N4CCOCC4)CC3)n2)CC1` [(S)-4-(4-(4-morpholinopiperidin-1-yl)-6-phenylpyrimidine-2-carboxamido)-5-oxo-5-(4-(pentyloxycarbonyl)piperazin-1-yl)pentanoic acid] belongs 5.52; to `CCCCCOC(=O)N1CCN(C(=O)[C@H](CCC(=O)O)NC(=O)c2cc(N3CCN(CC(=O)N(C)C)CC3)nc(-c3ccccc3)n2)CC1` [(S)-4-(6-(4-(2-(dimethylamino)-2-oxoethyl)piperazin-1-yl)-2-phenylpyrimidine-4-carboxamido)-5-oxo-5-(4-(pentyloxycarbonyl)piperazin-1-yl)pentanoic acid], 6.28.
To `CCCCCOC(=O)N1CCN(C(=O)[C@H](CCC(=O)O)NC(=O)c2cc(NCC3CCNC3)nc(-c3ccccc3)n2)CC1` (stereo partly drawn) [(4S)-5-oxo-5-(4-(pentyloxycarbonyl)piperazin-1-yl)-4-(2-phenyl-6-(pyrrolidin-3-ylmethylamino)pyrimidine-4-carboxamido)pentanoic acid] belongs 5.59.
As to `CCCCCOC(=O)N1CCN(C(=O)[C@H](CCC(=O)O)NC(=O)c2cc(N3CCC(CNCC)CC3)nc(-c3ccccc3)n2)CC1` [(S)-4-(6-(4-((ethylamino)methyl)piperidin-1-yl)-2-phenylpyrimidine-4-carboxamido)-5-oxo-5-(4-(pentyloxycarbonyl)piperazin-1-yl)pentanoic acid], the pIC50 is 6.11.
To `CCCCCOC(=O)N1CCN(C(=O)[C@H](CCC(=O)O)NC(=O)c2nc(-c3ccccc3)cc(N3CCC(OCCOC)CC3)n2)CC1` [(S)-4-(4-(4-(2-methoxyethoxy)piperidin-1-yl)-6-phenylpyrimidine-2-carboxamido)-5-oxo-5-(4-(pentyloxycarbonyl)piperazin-1-yl)pentanoic acid] belongs 5.28.
For the molecule `CCCCCOC(=O)N1CCN(C(=O)[C@H](CCC(=O)O)NC(=O)c2cc(NC3CCN(C(C)C)CC3)nc(-c3ccccc3)n2)CC1` [(S)-4-(6-(1-isopropylpiperidin-4-ylamino)-2-phenylpyrimidine-4-carboxamido)-5-oxo-5-(4-(pentyloxycarbonyl)piperazin-1-yl)pentanoic acid], the pIC50 was 5.43.
To `CCCCOC(=O)N1CCN(C(=O)[C@H](CCC(=O)O)NC(=O)c2cc(N3CCC(N4CCCC4)CC3)nc(-c3ccccc3)n2)CC1` [(S)-5-(4-(butoxycarbonyl)piperazin-1-yl)-5-oxo-4-(2-phenyl-6-(4-(pyrrolidin-1-yl)piperidin-1-yl)pyrimidine-4-carboxamido)pentanoic acid] belongs 6.18.
Turning to `CCCCCOC(=O)N1CCN(C(=O)[C@H](CCC(=O)O)NC(=O)c2cc(N3CCC(C(=O)NCC)CC3)nc(-c3ccccc3)n2)CC1` [(S)-4-(6-(4-(ethylcarbamoyl)piperidin-1-yl)-2-phenylpyrimidine-4-carboxamido)-5-oxo-5-(4-(pentyloxycarbonyl)piperazin-1-yl)pentanoic acid], the pIC50 was 6.03.
To `CCCCCOC(=O)N1CCN(C(=O)[C@H](CCC(=O)O)NC(=O)c2cc(N3CCC(CC(=O)NC)CC3)nc(-c3ccccc3)n2)CC1` [(S)-4-(6-(4-(2-(methylamino)-2-oxoethyl)piperidin-1-yl)-2-phenylpyrimidine-4-carboxamido)-5-oxo-5-(4-(pentyloxycarbonyl)piperazin-1-yl)pentanoic acid] belongs 5.96; to `CCCCCOC(=O)N1CCN(C(=O)[C@H](CCC(=O)O)NC(=O)c2cc(NCCCN(C)C)nc(-c3ccccc3)n2)CC1` [(S)-4-(6-(3-(dimethylamino)propylamino)-2-phenylpyrimidine-4-carboxamido)-5-oxo-5-(4-(pentyloxycarbonyl)piperazin-1-yl)pentanoic acid], 5.59; to `CCCCCOC(=O)N1CCN(C(=O)[C@H](CCC(=O)O)NC(=O)c2cc(N3CCC(CCN)CC3)nc(-c3ccccc3)n2)CC1` [(S)-4-(6-(4-(2-aminoethyl)piperidin-1-yl)-2-phenylpyrimidine-4-carboxamido)-5-oxo-5-(4-(pentyloxycarbonyl)piperazin-1-yl)pentanoic acid], 6.21.
To `CCCCCOC(=O)N1CCN(C(=O)[C@H](CCC(=O)O)NC(=O)c2cc(N3CCC(OCCO)CC3)nc(-c3ccccc3)n2)CC1` [(S)-4-(6-(4-(2-hydroxyethoxy)piperidin-1-yl)-2-phenylpyrimidine-4-carboxamido)-5-oxo-5-(4-(pentyloxycarbonyl)piperazin-1-yl)pentanoic acid] belongs 5.89; to `CCCCCOC(=O)N1CCN(C(=O)[C@H](CCC(=O)O)NC(=O)c2cc(OCC3CCN(C)CC3)nc(-c3ccccc3)n2)CC1` [(S)-4-(6-((1-methylpiperidin-4-yl)methoxy)-2-phenylpyrimidine-4-carboxamido)-5-oxo-5-(4-(pentyloxycarbonyl)piperazin-1-yl)pentanoic acid], 5.44; to `CCCCCOC(=O)N1CCN(C(=O)[C@H](CCC(=O)O)NC(=O)c2nc(-c3ccccc3)cc(N3CCC(COCCOC)CC3)n2)CC1` [(S)-4-(4-(4-((2-methoxyethoxy)methyl)piperidin-1-yl)-6-phenylpyrimidine-2-carboxamido)-5-oxo-5-(4-(pentyloxycarbonyl)piperazin-1-yl)pentanoic acid], less than 5.00.
The figure for `CCCCOC(=O)N1CCN(C(=O)[C@H](CCC(=O)O)NC(=O)c2cc(N3CCC(N4CCOCC4)CC3)nc(-c3ccccc3)n2)CC1` [(S)-5-(4-(butoxycarbonyl)piperazin-1-yl)-4-(6-(4-morpholinopiperidin-1-yl)-2-phenylpyrimidine-4-carboxamido)-5-oxopentanoic acid] is 6.06; for `CCCCCOC(=O)N1CCN(C(=O)[C@H](CCC(=O)O)NC(=O)c2cc(SC3CCCCC3)nc(-c3ccccc3)n2)CC1` [(S)-4-(6-(cyclohexylthio)-2-phenylpyrimidine-4-carboxamido)-5-oxo-5-(4-(pentyloxycarbonyl)piperazin-1-yl)pentanoic acid] it is less than 5.00; for `CCCCOC(=O)N1CCN(C(=O)[C@H](CCC(=O)O)NC(=O)c2cc(OCC3CCN(C)CC3)nc(-c3ccccc3)n2)CC1` [(S)-5-(4-(butoxycarbonyl)piperazin-1-yl)-4-(6-((1-methylpiperidin-4-yl)methoxy)-2-phenylpyrimidine-4-carboxamido)-5-oxopentanoic acid] it is 5.52.
